{"source": "patent US12202805B2", "about": "“Process for preparing (5S)-{[2-(4-carboxyphenyl)ethyl] |2-(2-{|3-chloro-4'-(trifluoromethyl)biphenyl-4-yl]methoxy}phenyl)ethyl]aminol-5,6,7,8-tetrahydroquinoline-2-carboxylic acid and its crystalline forms for use as pharmaceutically active compound” (Bayer Aktiengesellschaft, priority 2021, dated 2025)", "key": {"sGC [1]": {"system": "sGC", "assay": "Efficacy under experimental conditions of oxidative stress (ODQ, L-NAME treatment)", "format": "in vivo"}, "[2]": {"assay": "Protein binding via Transil assay, monkey plasma", "format": "in vitro ADME", "protocol": "(§1) Protein Binding of Comparative Example 11 and Comparative Example 1 was Analyzed Via Transil Assay, Described Below.\n(§2) The distribution of a test substance between Transil® (phosphatidylcholine lipid bilayers immobilized on silica beads) and plasma is a characteristic feature of any pharmaceutical compound and is dependent on its extent of binding to plasma proteins. By comparing the distribution between Transil® and buffer with the distribution between Transil® and plasma of any species of interest, the unbound fraction in the plasma of the respective animal species can be calculated in vitro. The respective plasma and buffer concentrations were determined via a radioactivity analysis. A detailed description of the method and its validation was published by Schuhmacher et al. (2)."}, "[3]": {"system": "chronic ovalbumin asthma mice model", "assay": "Chronic ovalbumin asthma mice model", "conditions": "mouse, in vivo"}, "[4]": {"assay": "Protein binding via Transil assay, rat plasma", "format": "in vitro ADME", "protocol": "as §1, §2"}, "[5]": {"system": "patients with PAH or CTEPH", "assay": "E-2.4 inhaled single doses in patients with PAH or CTEPH: PVR, mPAP (right heart catheterization), safety", "format": "in vivo, human", "protocol": "E-2.4 Inhaled Administration of Single Doses to Patients with PAH or CTEPH to Investigate the Reduction of Pulmonary Vascular Resistance (PVR)\nPatients with PAH or CTEPH aged 18 to 80 years were treated in a clinical phase 1b study with orally inhaled single doses* of 240 μg (2 capsules of 120 μg), 480 μg (1 capsule of 480 μg), 1000 μg (1 capsule of 1000 μg), 2000 μg (2 capsules of 1000 μg) or 4000 μg (4 capsules of 1000 μg) of a dry powder formulation comprising example 4 (see C-1, e.g. tables 17 and 20) inserted into a handheld inhalation device, inhaled by deep inhalative breath into the deep parts of the lung (*single dose means the administration of one dosage form/capsule as well as administration of two or more dosage forms/capsules simultaneously or consecutively within a short time period). The included patients had no background treatment with standard of care (SoC) medication for PAH or CTEPH (such as endothelin antagonists, prostanoids, phosphodiesterase type 5 inhibitor or soluble guanylate cyclase stimulators). Patients in this study underwent invasive right heart catheterization as medically indicated routine diagnostic. Primary objective of the study was to investigate the peak percent reduction from baseline in PVR. Patients had to have a baseline pulmonary artery pressure (mPAP) of ≥25 mmHg and a PVR of ≥400 dyn·sec·cm^−5 (5 Wood Units) and were not to show vaso-responsiveness to initial iNO inhalation testing to be included in the per protocol analysis. Plasma concentrations (pharmacokinetics) of the administered drug at several time points after administration were measured and safety and tolerability was assessed.\nThe study is divided into two parts, Part A and Part B. In Part A escalating aforementioned single doses were administered to patients without background treatment with standard of care (SoC) medication for PAH or CTEPH (such as endothelin antagonists, prostanoids, phosphodiesterase type 5 inhibitor or soluble guanylate cyclase stimulators). In Part B, after finalization of Part A, a selected dose from PartA will be tested in further patients without background SoC treatment (group 1) and additionally in patients on monotherapy with SoC (group 2) and on dual combination therapy with SoC (group 3).\nThe PVR is a derived parameter from parameters directly measured during the right heart catheterization procedure. The direct parameters included in the calculation are: mean pulmonary arterial pressure [mmHg](mPAP), pulmonary capillary wedge pressure [mmHg] (PCWP), and cardiac output [1/min] (CO). The PVR is calculated according to the formula: PVR [dyn*sec*cm^−5]=80*(mPAP˜PCWP)/CO."}, "sGC [6]": {"system": "sGC", "assay": "E-2.2 inhalative administration in healthy male subjects for 14 days: cGMP", "format": "in vivo, human", "conditions": "1000 μg once daily inhaled", "protocol": "E-2.2 Inhalative Administration of sGC Activators in Healthy Male Subjects for 14 Days to Evaluate Steady State Pharmacokinetics\nHealthy white male subjects, aged 18 to 45 years and with a body mass index (BMI) above/equal 18.5 and below/equal 29.9 kg/m2 were treated in a clinical pharmacological phase I study for 14 days with inhaled once daily doses of 1000 μg (nominal dose) of Placebo or of dry powder formulation containing example 4. The subjects inhaled the drug powder from capsules (see under C, e.g. tables 17 and 20) inserted into a handheld inhalation device by one deep inhalative breath into the deep parts of the lung. The intended substantial reduction of increased blood pressure in the central pulmonary blood vessels cannot be evaluated in subjects without pathophysiological impairment of lung function. As surrogate for drug concentration in the lung, plasma concentrations over time have been analysed. […] Drug activity/target engagement in healthy men was controlled in the healthy subjects by analysing blood samples for cGMP."}, "sGC [7]": {"system": "sGC", "assay": "E-2.1 inhalative administration in healthy male subjects for 7 days: cGMP in blood samples", "format": "in vivo, human", "protocol": "E-2.1 Inhalative Administration of sGC Activators in Healthy Male Subjects for 7 Days—cGMP and Bronchodilatation\n(§3) Healthy White male subjects, aged 18 to 45 years and with a body mass index (BMI) above/equal 18.5 and below/equal 29.9 kg/m2 were treated in a clinical pharmacological phase I study on seven days with inhaled once daily doses of 480 μg or 1000 μg or 2000 μg (2 capsules of 1000 μg) (nominal dose) of dry powder formulations comprising example 2 or Placebo. The subjects inhaled the drug powder from capsules (see under C-1, e.g. tables 22 and 23) inserted into a handheld inhalation device by one deep inhalative breath. The dry powder formulation of the drug is dispersed into the airstream and fine particles are transported into the deep parts of the lung where it is intended to cause a vasodilation of the blood vessels in PH patients for a substantial reduction of increased blood pressure in the central pulmonary blood vessels in PAH patients or other subtypes of PH. This effect cannot be shown in subjects with healthy lungs. In addition inhaled drug causes a dilation of the bronchial airways and thus also improves disease states of lung diseases in PH patients with pathological bronchoconstriction. This effect was measured via bodyplethysmography as reduction of Specific Airway Resistance in healthy subjects. After the deep inhalative breath the subjects hold breath for 2 seconds, so that the dry powder drug condenses from the airstream onto the surface of the deeper lung areas where it is deposited close to its site of intended pharmacological action. The drug dissolutes over the day and equilibrates the lung via lining fluid.\nDrug activity in healthy men was controlled in the healthy subjects by analysing blood samples for cGMP, the immediate product of sGC pharmacological activation prior after the first and after the last drug inhalation of the 7 days treatment in comparison to measurements on the pretreatment day for all doses."}, "healthy male subjects": {"system": "healthy male subjects", "assay": "E-2.1 bodyplethysmography: total specific airway resistance (sRaw) in healthy male subjects", "format": "in vivo, human", "protocol": "as §3, with “After the deep inhalative breath the subjects hold breath for 2 seconds, so that the dry powder drug condenses from the airstream onto the surface of the deeper lung areas where it is deposited close to its site of intended pharmacological action. The drug dissolutes over the day and equilibrates the lung via lining fluid.” left out"}}, "data": [{"compound": "O=C(O)c1ccc(CCN(CCc2ccccc2OCc2ccc(-c3ccc(C(F)(F)F)cc3)cc2Cl)[C@H]2CCCc3nc(C(=O)O)ccc32)cc1", "note": "[comparative example 11, (5S)-5-{[2-(4-carboxyphenyl)ethyl][2-(2-{[3-chloro-4′-(trifluoromethyl)[biphenyl]-4-yl]methoxy}phenyl)ethyl]amino}-5,6,7,8-tetrahydroquinoline-2-carboxylic acid]", "values": [{"measurement": "efficacy under oxidative stress", "setting": "sGC [1]", "result": "enhanced"}, {"measurement": "free fraction, times lower than comparative example 1", "setting": "[2]", "result": 2, "unit": "times"}, {"measurement": "effect on airway hyper-responsiveness and inflammation", "setting": "[3]", "result": "inhibitory effect on airway hyper-responsiveness and inflammation"}, {"measurement": "fraction unbound, times lower than comparative example 1", "setting": "[4]", "result": 1.6, "unit": "times"}]}, {"compound": "O=C(O)c1ccc(CCN(CCc2ccccc2OCc2ccc(-c3ccc(C(F)(F)F)cc3)cc2Cl)[C@H]2CCCc3nc(C(=O)O)ccc32)cc1", "note": "[example 4, (5S)—{[2-(4-Carboxyphenyl)ethyl][2-(2-{[3-chloro-4′-(trifluoromethyl)biphenyl-4-yl]methoxy}phenyl)-ethyl]amino}-5,6,7,8-tetrahydroquinoline-2-carboxylic acid as Monohydrate I]", "values": [{"measurement": "changes of systemic blood pressure, heart rate and oxygen saturation", "setting": "[5]; at any dose", "result": "did not represent a safety concern"}, {"measurement": "tolerability", "setting": "[5]; including the highest dose of 4000 μg", "result": "good tolerability"}, {"measurement": "systemic cGMP", "setting": "[5]; patients with PAH or CTEPH", "result": "Increase"}, {"measurement": "duration of sustained effect with no decrease in response", "setting": "[5]; until end of the measurement period", "result": "≥ 3", "unit": "h"}, {"measurement": "steady state of cGMP concentration reached after days of treatment", "setting": "sGC [6]", "result": "≤ 11", "unit": "days"}]}, {"compound": "O=C(O)c1ccc(CCN(CCc2ccccc2OCc2ccc(-c3ccc(C(F)(F)F)cc3)cc2Cl)[C@H]2CCCc3nc(C(=O)O)ccc32)cc1", "note": "[example 2, (5S)—{[2-(4-Carboxyphenyl)ethyl][2-(2-{[3-chloro-4′-(trifluoromethyl)biphenyl-4-yl]methoxy}phenyl)-ethyl]amino}-5,6,7,8-tetrahydroquinoline-2-carboxylic acid as Monohydrate II]", "values": [{"measurement": "cGMP over time (mean)", "setting": "sGC [7]; 480 μg, 8 D 00 H 00 M", "result": "7.20 ± 3.23", "unit": "nmol/L"}, {"measurement": "cGMP over time (mean)", "setting": "sGC [7]; 480 μg, 8 D 12 H 00 M", "result": "6.20 ± 2.00", "unit": "nmol/L"}, {"measurement": "cGMP over time (mean)", "setting": "sGC [7]; 480 μg, −0 D 09 H 00 M", "result": "5.60 ± 1.08", "unit": "nmol/L"}, {"measurement": "cGMP over time (mean)", "setting": "sGC [7]; 480 μg, −1 D 02 H 00 M", "result": "5.40 ± 1.41", "unit": "nmol/L"}, {"measurement": "cGMP over time (mean)", "setting": "sGC [7]; 1000 μg, 5 D 00 H 00 M", "result": "8.50 ± 2.13", "unit": "nmol/L"}, {"measurement": "cGMP over time (mean)", "setting": "sGC [7]; 1000 μg, −0 D 22 H 00 M", "result": "5.10 ± 1.46", "unit": "nmol/L"}, {"measurement": "cGMP over time (mean)", "setting": "sGC [7]; 2000 μg, 2 D 00 H 00 M", "result": "6.40 ± 2.09", "unit": "nmol/L"}, {"measurement": "cGMP over time (mean)", "setting": "sGC [7]; 2000 μg, 3 D 00 H 00 M", "result": "10.00 ± 3.51", "unit": "nmol/L"}, {"measurement": "cGMP over time (mean)", "setting": "sGC [7]; 2000 μg, 8 D 00 H 00 M", "result": "16.00 ± 5.77", "unit": "nmol/L"}, {"measurement": "cGMP over time (mean)", "setting": "sGC [7]; 2000 μg, 9 D 12 H 00 M", "result": "9.40 ± 3.10", "unit": "nmol/L"}, {"measurement": "peak mean±SD cGMP value", "setting": "sGC [7]; first profile day, 1000 μg inhaled", "result": "11.69 ± 1.86", "unit": "nmol/L"}, {"measurement": "total specific airway resistance", "setting": "healthy male subjects; 480 μg, 0 D 06 H 00 M", "result": "0.800 ± 0.187", "unit": "kPa/sec"}, {"measurement": "total specific airway resistance", "setting": "healthy male subjects; 2000 μg, 7 D 06 H 00 M", "result": "0.730 ± 0.151", "unit": "kPa/sec"}]}]}
